{"source": "patent US20150104525A1", "about": "“METHOD OF DECREASING FEED CONVERSION RATIO IN FOWL” (Reoxcyn Discoveries Group, Inc., priority 2013, published 2015)", "tested_on": "NRF2", "assay": "Western Blot validation of NRF2 nuclear accumulation and extra-nuclear protein phosphorylation", "type": "cell-based, human", "details": "HMVEC-L", "procedure": "8. A Western Blot analysis was done on extra-nuclear and intra-nuclear fractions, separated by differential centrifugation, of serum starved HMVEC-L cell cultures exposed to <1% of a composition of the invention compared with a positive hydrogen peroxide control to determine phosphorylation events (oxidant action) in the extra-nuclear fraction and NRF2 (antioxidant transcription) in the intra-nuclear fraction at 0, 30, 60, 90 and 120 min intervals.\nExperimental Methods for Western Blot Validation of NRF2 Nuclear Accumulation: HMVEC-L were treated with 1% of a composition of the invention, nuclear extracts were separated through centrifugal differentiation from the extra-nuclear cytosol at 30, 60 and 120 min and subjected to Western Blot analysis for NRF2. In the Western blot experiment the extra-nuclear fraction was probed for phosphorylated proteins using a combination of anti-phospho serine, threonine and tyrosine antibodies. Virtually all cellular processes are regulated by posttranslational modifications and protein phosphorylation is a prevalent mechanism. […]", "data": [{"compound": "OO", "note": "[H2O2, Hydrogen peroxide]", "values": [{"measurement": "nuclear NRF2 levels", "setting": "H2O2 positive control, 30 min", "result": "did not increase nuclear NRF2 levels"}, {"measurement": "phosphorylation of extra-nuclear protein", "setting": "H2O2 treatment", "result": "marked increase in the phosphorylation"}]}]}
